Structures are written as SMILES. Bounds are passed on as bounds.

One test has as its target T1, M1 muscarinic receptor (Homo sapiens, UniProt P11229).
T1 construct: expressed in transfected cells; host or cells: CHO (M1-CHO)
T1 sequence (P11229 1-460): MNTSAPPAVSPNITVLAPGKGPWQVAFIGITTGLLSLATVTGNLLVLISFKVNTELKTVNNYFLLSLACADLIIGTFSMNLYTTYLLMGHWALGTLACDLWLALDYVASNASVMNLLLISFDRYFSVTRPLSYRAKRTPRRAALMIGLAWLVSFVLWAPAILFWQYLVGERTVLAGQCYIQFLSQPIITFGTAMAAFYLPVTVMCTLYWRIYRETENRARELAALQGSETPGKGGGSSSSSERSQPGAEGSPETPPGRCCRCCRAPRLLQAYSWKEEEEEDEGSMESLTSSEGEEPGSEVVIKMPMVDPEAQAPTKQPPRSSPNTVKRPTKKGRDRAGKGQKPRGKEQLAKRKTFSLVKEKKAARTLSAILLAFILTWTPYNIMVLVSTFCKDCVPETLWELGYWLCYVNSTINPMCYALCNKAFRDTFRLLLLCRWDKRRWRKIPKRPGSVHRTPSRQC
Kind of test: Functional mobilization of intracellular calcium (FLIPR) in M1-CHO cells. The note with it: Table 4; for Emax: 100% efficacy is the maximum response obtained with the Carbachol control; for M1 Activity: modulating M1 receptor. Type of test: cell-based. The procedure, abridged: (§1)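 CHO cells stably expressing human M1 or M4 receptor were loaded with Fluo-3 AM (or Calcium 3 dye) in Hepes-buffered saline, pH 7.4, with 1 mM probenecid, 0.5% final DMSO. Agonist mode: compound added directly; antagonist mode: 15 min preincubation before carbachol at EC80. FLIPR fluorescence recorded 60 sec.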

Another test deals with T2, M4 muscarinic receptor (Homo sapiens, UniProt P08173).
T2 construct: expressed in transfected cells; host or cells: CHO (M4-CHO)
T2 sequence (P08173 1-479): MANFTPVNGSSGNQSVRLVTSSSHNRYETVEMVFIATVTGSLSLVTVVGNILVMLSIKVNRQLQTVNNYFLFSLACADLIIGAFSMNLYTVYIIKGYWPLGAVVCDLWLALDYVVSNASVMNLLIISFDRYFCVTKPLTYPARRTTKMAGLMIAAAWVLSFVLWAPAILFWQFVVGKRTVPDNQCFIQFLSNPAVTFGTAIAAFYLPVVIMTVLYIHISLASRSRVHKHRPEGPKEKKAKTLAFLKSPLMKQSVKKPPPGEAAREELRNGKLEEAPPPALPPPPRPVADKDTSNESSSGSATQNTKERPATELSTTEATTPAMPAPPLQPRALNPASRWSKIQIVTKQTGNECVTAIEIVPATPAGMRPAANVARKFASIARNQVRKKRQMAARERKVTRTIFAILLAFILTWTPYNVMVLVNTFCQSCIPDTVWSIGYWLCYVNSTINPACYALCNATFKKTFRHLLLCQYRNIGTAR
Kind of test: Functional mobilization of intracellular calcium (FLIPR) in M4-CHO cells. Type of test: cell-based. As to conditions: Table 4; for Emax: 100% efficacy is the maximum response obtained with the Carbachol control; for M4 Activity: modulating M4 receptor. The procedure, abridged:
as §1

On to `CC#CC(C)OC(=O)N1CC[C@@H](CN2CCC3(CC2)CN(C(=O)N(C)C)c2ccc(F)cc23)C1` (some centres unmarked) [compound 479], for which, at M1 muscarinic receptor, the Emax is 25 to 100% and the “M1 Activity” value was “xxx (activity was measured to be less than 2.0 μM)”. Besides, at M4 muscarinic receptor, the Emax was less than 25% and the “M4 Activity” value is “xxx (activity was measured to be less than 2.0 μM)”.

As to `CC(=O)N[C@H]1CC2(CCN(CC(=O)N3CCOCC3)CC2)c2ccccc21` [compound 480], at M1 muscarinic receptor, the Emax is less than 25% and the “M1 Activity” value is reported as “x (activity was measured to be greater than 5.0 μM)”. For the same molecule, at M4 muscarinic receptor, the Emax was less than 25% and the “M4 Activity” value was “x (activity was measured to be greater than 5.0 μM)”.

For `CCC#CCOC(=O)N1CC[C@@H](CN2CCC3(CC2)CN(C(C)=O)c2ccccc23)C1` [compound 481], at M1 muscarinic receptor, the Emax was 25 to 100% and the “M1 Activity” value is on record as “xxx (activity was measured to be less than 2.0 μM)”. On M4 muscarinic receptor, the Emax is 25 to 100% and the “M4 Activity” value is “xxx (activity was measured to be less than 2.0 μM)”.

`CCOC(=O)N1CC[C@H](CN2CCC3(CC2)CN(C(C)=O)c2ccccc23)C1` [compound 482]: at M1 muscarinic receptor, the Emax fell in the range of 25 to 100% and the “M1 Activity” value is on record as “xxx (activity was measured to be less than 2.0 μM)”. For the same molecule, on M4 muscarinic receptor, the Emax is 25 to 100% and the “M4 Activity” value is “xxx (activity was measured to be less than 2.0 μM)”.

Regarding `CC1(C)C(=O)c2ccccc2C12CCN([C@H]1C[C@@H]3CC[C@@H]1C3)CC2` [compound 483], on M1 muscarinic receptor, the Emax was less than 25% and the “M1 Activity” value is “x (activity was measured to be greater than 5.0 μM)”. At M4 muscarinic receptor, the Emax is less than 25% and the “M4 Activity” value is “x (activity was measured to be greater than 5.0 μM)”.

Regarding `CCOC(=O)N1C2CCC1CC(N1CCC3(CCCc4ccccc43)CC1)C2` (centres unmarked) [compound 484], on M1 muscarinic receptor, the Emax fell in the range of 25 to 100% and the “M1 Activity” value is recorded as “xxx (activity was measured to be less than 2.0 μM)”. For the same molecule, on M4 muscarinic receptor, the Emax lay in the range of 25 to 100% and the “M4 Activity” value is “xxx (activity was measured to be less than 2.0 μM)”.

Turning to `CC#CC(C)OC(=O)N1CC[C@H](CN2CCC3(CC2)CN(C(=O)N(C)C)c2ccc(F)cc23)C1` (some centres unmarked) [compound 485], on M1 muscarinic receptor, the Emax was in the range of 25 to 100%; the “M1 Activity” value is “xx (activity was measured to be between 2.0 μM and 5.0 μM)”. At M4 muscarinic receptor, the Emax is less than 25% and the “M4 Activity” value is listed as “xxx (activity was measured to be less than 2.0 μM)”.

On to `CC(=O)N[C@@H]1CCC2(CCN(CC3CC4C=CC3C4)CC2)c2ccccc21` (some centres unmarked) [compound 486], for which, on M1 muscarinic receptor, the Emax is less than 25% and the “M1 Activity” value is recorded as “x (activity was measured to be greater than 5.0 μM)”. On M4 muscarinic receptor, the Emax is 25 to 100% and the “M4 Activity” value is recorded as “xxx (activity was measured to be less than 2.0 μM)”.

On to `O=C(N[C@H]1CC2(CCN([C@@H]3C[C@H]4CC[C@@H]3C4)CC2)c2ccccc21)N1CCCC1` [compound 487], for which, at M1 muscarinic receptor, the Emax was less than 25% and the “M1 Activity” value is on record as “x (activity was measured to be greater than 5.0 μM)”. Moreover, at M4 muscarinic receptor, the Emax was 25 to 100% and the “M4 Activity” value is reported as “xxx (activity was measured to be less than 2.0 μM)”.

For `O=C(O)C1CC2(CCN(C3CCCCCC3)CC2)c2ccccc21` (centres unmarked) [compound 488], at M1 muscarinic receptor, the Emax was 25 to 100% and the “M1 Activity” value is listed as “x (activity was measured to be greater than 5.0 μM)”. For the same molecule, at M4 muscarinic receptor, the Emax was in the range of 25 to 100% and the “M4 Activity” value was “x (activity was measured to be greater than 5.0 μM)”.

In the case of `CC(=O)N1CC2(CCN(C3CCN(c4cncc(C)n4)CC3)CC2)c2ccccc21` [compound 489], on M1 muscarinic receptor, the Emax was 25 to 100% and the “M1 Activity” value is “xxx (activity was measured to be less than 2.0 μM)”. Moreover, at M4 muscarinic receptor, the Emax is 25 to 100% and the “M4 Activity” value is recorded as “xxx (activity was measured to be less than 2.0 μM)”.

For the molecule `CCC(=O)N[C@H]1CC2(CCN([C@@H]3C[C@@H]4CC[C@@H]3C4)CC2)c2ccccc21` [compound 490], at M1 muscarinic receptor, the Emax is 25 to 100% and the “M1 Activity” value is “x (activity was measured to be greater than 5.0 μM)”. Further, on M4 muscarinic receptor, the maximum response (Emax) is greater than 100% and the “M4 Activity” value is recorded as “xxx (activity was measured to be less than 2.0 μM)”.

As for `CCOC(=O)N1CCC(N2CCC3(CC2)CN(C(C)=O)c2c(-c4ccc(C(C)=O)cc4)cccc23)CC1` [compound 491], on M1 muscarinic receptor, the Emax lay within 25 to 100%; the “M1 Activity” value was “xx (activity was measured to be between 2.0 μM and 5.0 μM)”. Besides, at M4 muscarinic receptor, the Emax is less than 25%; the “M4 Activity” value is “xx (activity was measured to be between 2.0 μM and 5.0 μM)”.

In the case of `CN(C)C(=O)N1CC2(CCN(C3CCN(C(=O)CCC#N)CC3)CC2)c2cc(F)ccc21` [compound 492], on M1 muscarinic receptor, the Emax fell in the range of 25 to 100% and the “M1 Activity” value was “x (activity was measured to be greater than 5.0 μM)”. At M4 muscarinic receptor, the Emax was less than 25% and the “M4 Activity” value is given as “x (activity was measured to be greater than 5.0 μM)”.

For the molecule `C#CCOC(=O)N1CC[C@H](CN2CCC3(CC2)CN(C(C)=O)c2ccccc23)C1` [compound 493], on M1 muscarinic receptor, the Emax is greater than 100% and the “M1 Activity” value is on record as “xxx (activity was measured to be less than 2.0 μM)”. Also, on M4 muscarinic receptor, the Emax was greater than 100% and the “M4 Activity” value is recorded as “xxx (activity was measured to be less than 2.0 μM)”.

As for `CCOC(=O)N1CCC(N2CCC3(CC2)CN(C(=O)NC(C)C)c2ccccc23)CC1` [compound 494], at M1 muscarinic receptor, the Emax was in the range of 25 to 100%; the “M1 Activity” value was “xx (activity was measured to be between 2.0 μM and 5.0 μM)”. At M4 muscarinic receptor, the Emax was in the range of 25 to 100% and the “M4 Activity” value is “xxx (activity was measured to be less than 2.0 μM)”.

On to `CC(=O)N1CC2(CCN(C3CCN(C(=O)OCC(C)(C)C)CC3)CC2)c2ccccc21` [compound 496], for which, on M1 muscarinic receptor, the Emax was less than 25% and the “M1 Activity” value is on record as “x (activity was measured to be greater than 5.0 μM)”. Moreover, at M4 muscarinic receptor, the Emax was less than 25% and the “M4 Activity” value is on record as “x (activity was measured to be greater than 5.0 μM)”.

In the case of `CN(C)C(=O)N1CC2(CCN(C3CCN(c4nccnc4C#N)CC3)CC2)c2cc(F)ccc21` [compound 497], at M1 muscarinic receptor, the Emax lay in the range of 25 to 100%; the “M1 Activity” value was “xx (activity was measured to be between 2.0 μM and 5.0 μM)”. Moreover, at M4 muscarinic receptor, the Emax was in the range of 25 to 100%; the “M4 Activity” value was “xx (activity was measured to be between 2.0 μM and 5.0 μM)”.

As for `Cc1ccc2c(c1)C(=O)CC21CCN(CC2C[C@H]3C=C[C@H]2C3)CC1` (some centres unmarked) [compound 498], on M1 muscarinic receptor, the Emax was in the range of 25 to 100% and the “M1 Activity” value was “xxx (activity was measured to be less than 2.0 μM)”. On M4 muscarinic receptor, the Emax lay within 25 to 100% and the “M4 Activity” value is recorded as “xxx (activity was measured to be less than 2.0 μM)”.

As to `CCOC(=O)N1CCC(N2CCC3(CC2)CN(C(C)=O)c2c(-c4cccc(F)c4)cccc23)CC1` [compound 499], at M1 muscarinic receptor, the Emax lay within 25 to 100% and the “M1 Activity” value is listed as “x (activity was measured to be greater than 5.0 μM)”. On M4 muscarinic receptor, the Emax was less than 25% and the “M4 Activity” value was “x (activity was measured to be greater than 5.0 μM)”.

For the molecule `COc1ccc(CC(=O)N2CCC(N3CCC4(CC3)CN(C(=O)N(C)C)c3ccc(F)cc34)CC2)cc1` [compound 500], at M1 muscarinic receptor, the Emax is less than 25% and the “M1 Activity” value was “x (activity was measured to be greater than 5.0 μM)”. For the same molecule, at M4 muscarinic receptor, the Emax is less than 25% and the “M4 Activity” value is recorded as “x (activity was measured to be greater than 5.0 μM)”.

Consider `CCOC(=O)N1CC[C@@H](CN2CCC3(CC2)CN(C(C)=O)c2cccc(C)c23)C1` [compound 502], for which, on M1 muscarinic receptor, the Emax was in the range of 25 to 100% and the “M1 Activity” value is on record as “xxx (activity was measured to be less than 2.0 μM)”. Moreover, on M4 muscarinic receptor, the Emax lay within 25 to 100%; the “M4 Activity” value is “xx (activity was measured to be between 2.0 μM and 5.0 μM)”.

As for `CCOC(=O)N1C2CCC1CC(N1CCC3(CC[C@H](NC(=O)N(C)C)c4ccccc43)CC1)C2` (some centres unmarked) [compound 503], at M1 muscarinic receptor, the Emax fell in the range of 25 to 100% and the “M1 Activity” value was “xxx (activity was measured to be less than 2.0 μM)”. In addition, at M4 muscarinic receptor, the Emax fell in the range of 25 to 100% and the “M4 Activity” value is on record as “xxx (activity was measured to be less than 2.0 μM)”.

The values are drawn from US7786141B2 (Vertex Pharmaceuticals Incorporated, priority 2004, dated 2010).
